Source: US20260115185A1, “QUINOLINE DERIVATIVES WHICH ACT AS KAPPA-OPIOID RECEPTOR ANTAGONISTS” (The Scripps Research Institute, priority 2023, published 2026)
pIC50: −log10 of the molar value.

Assays:
[1] = biological target: T1, mu opioid receptor (MOR) (Homo sapiens, UniProt P35372); assay: OPRMu1 Discover X β-arrestin Assay, antagonist mode (U2OS cells, DAMGO EC80 challenge); assay type: cell-based
T1 construct: host or cells: U2OS (Discover X OPRMu1-U2OS, PathHunter)
How it was run: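 PathHunter U2OS cells with β-gal fragment-complementation readout for β-arrestin recruitment to OPRMu1. Cells were preincubated with compound (10-point, 1:3 series from nominal 10 micromolar) for 30 min at 37 °C, then challenged with 303 nM DAMGO (EC80) for 3 h. Luminescence gave percent inhibition.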

[2] = biological target: T2, kappa opioid receptor (KOR) (Homo sapiens, UniProt P41145); assay: OPRKappa 1 Tango B-Arrestin Assay, antagonist mode (Tango OPRK1-bla U2OS cells, U50488 EC80 challenge); assay type: cell-based; details: for Selectivity (MOR/KOR): Kappa selectivity, MOR IC50 / KOR IC50; for pIC50: antagonist mode, Tango OPRK1-bla U2OS cells, 6 nM U50488 challenge
T2 construct: host or cells: U2OS (Tango OPRK1-bla U2OS)
T2 sequence (P41145 whole entry): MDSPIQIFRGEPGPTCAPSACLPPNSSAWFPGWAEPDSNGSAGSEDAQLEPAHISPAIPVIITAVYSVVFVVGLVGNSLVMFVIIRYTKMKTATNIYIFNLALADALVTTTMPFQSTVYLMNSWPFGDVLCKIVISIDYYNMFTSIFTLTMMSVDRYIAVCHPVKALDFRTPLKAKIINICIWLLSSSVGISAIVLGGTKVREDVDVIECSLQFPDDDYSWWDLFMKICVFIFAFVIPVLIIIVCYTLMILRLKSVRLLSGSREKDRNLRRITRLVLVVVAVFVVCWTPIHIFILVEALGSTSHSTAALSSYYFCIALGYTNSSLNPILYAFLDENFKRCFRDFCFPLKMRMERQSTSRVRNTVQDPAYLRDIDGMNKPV
How it was run: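 Tango OPRK1-bla U2OS cells, β-arrestin recruitment read as β-lactamase FRET (CCF4-AM, 460/590 nm emission). Compounds, 10-point 1:3 series from nominal 10 µM in quadruplicate, preincubated 30 min at 37 °C, then challenged with U50488 at 6 nM final (EC80) for 4 h; percent inhibition from median ratio.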

T1 sequence (P35372 whole entry): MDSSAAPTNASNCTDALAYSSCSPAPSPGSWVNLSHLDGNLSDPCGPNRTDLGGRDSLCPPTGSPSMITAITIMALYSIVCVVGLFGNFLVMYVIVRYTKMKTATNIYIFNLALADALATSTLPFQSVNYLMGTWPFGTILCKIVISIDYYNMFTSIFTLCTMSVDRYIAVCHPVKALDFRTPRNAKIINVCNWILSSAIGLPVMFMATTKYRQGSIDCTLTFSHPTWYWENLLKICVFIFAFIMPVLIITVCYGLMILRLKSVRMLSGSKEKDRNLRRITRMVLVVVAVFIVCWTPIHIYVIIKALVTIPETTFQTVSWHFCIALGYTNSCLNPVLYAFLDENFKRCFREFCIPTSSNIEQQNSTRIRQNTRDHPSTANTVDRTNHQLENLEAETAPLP

| Structure (SMILES) | pIC50 [1] | Selectivity (MOR/KOR) [2] | pIC50 [2] |
| --- | --- | --- | --- |
| CCc1cc(-c2ccnn2C)c2nc(N3CC[C@H](NC4CCOCC4)[C@H](F)C3)c(-c3ccn(C)n3)c(C)c2c1 [Compound 1, (3R,4S)-1-(6-ethyl-4-methyl-3-(1-methyl-1H-pyrazol-3-yl)-8-(1-methyl-1H-pyrazol-5-yl)quinolin-2-yl)-3-fluoro-N-(tetrahydro-2H-pyran-4-yl)piperidin-4-amine] | < 6.00 | +++ (between 100- to 1000-fold selective) | 8.00 to 9.00 |
| CCc1cc(-c2cc(C)nn2C)c2nc(N3CCC(N[C@H]4CCOC4)CC3)c(-c3ccn(C)n3)c(C)c2c1 [Compound 94] | 7.00 to 8.00 | +++ (between 100- to 1000-fold selective) | > 9.00 |
| CCc1cc(F)c2nc(N3CC[C@@H](N[C@@H]4CCCOC4)[C@@H](C)C3)c(-c3ccn(C)n3)c(C)c2c1 [Compound 113] | < 6.00 | ++++ (more than 1000-fold selectivity over MOR) | > 9.00 |
| CCc1cc(F)c2nc(N3CCN(/C(=N/C#N)NC)C[C@H]3C)c(-c3nc(C)no3)c(C)c2c1 [Compound 55] | < 6.00 | ++ (between 10- and 100-fold selectivity) | 7.00 to 8.00 |
| CCc1cc(F)c2nc(N3CC[C@@H]4[C@@H](CCN4[C@@H]4CCCOC4)C3)c(-c3ccn(C)n3)c(C)c2c1 [Compound 124] | < 6.00 | +++ (between 100- to 1000-fold selective) | 7.00 to 8.00 |
| CCc1cc(F)c2nc(N3CCN(C4CCOCC4)C[C@@H]3C)c(-c3nc(C)no3)c(C)c2c1 [Compound 27, (S)-5-(6-ethyl-8-fluoro-4-methyl-2-(2-methyl-4-(tetrahydro-2H-pyran-4-yl)piperazin-1-yl)quinolin-3-yl)-3-methyl-1,2,4-oxadiazole] | < 6.00 | ++ (between 10- and 100-fold selectivity) | ≤ 7.00 |
| CCc1cc(F)c2nc(N3CCN(C(=O)CN4CCCC4)C[C@H]3C)c(-c3nc(C)no3)c(C)c2c1 [Compound 47, (R)-1-(4-(6-ethyl-8-fluoro-4-methyl-3-(3-methyl-1,2,4-oxadiazol-5-yl)quinolin-2-yl)-3-methylpiperazin-1-yl)-2-(pyrrolidin-1-yl)ethan-1-one] | 6.00 to 7.00 | +++ (between 100- to 1000-fold selective) | 8.00 to 9.00 |
| CCc1cc(F)c2nc(N3CC[C@H](N[C@@H]4CCOC4)C[C@H]3C)c(-c3cc(C)no3)c(C)c2c1 [Compound 140] | 6.00 to 7.00 | +++ (between 100- to 1000-fold selective) | > 9.00 |
| CCc1cc(-c2ccnn2C)c2nc(N3CCN(CC4CC(F)(F)C4)C[C@H]3C)c(-c3ccn(C)n3)c(C)c2c1 [Compound 61] | < 6.00 | ++ (between 10- and 100-fold selectivity) | ≤ 7.00 |
| CCc1cc(F)c2nc(N3CCN(C(=O)CN(C)C)C[C@H]3C)c(-c3cc(C)no3)c(C)c2c1 [Compound 181] | < 6.00 | +++ (between 100- to 1000-fold selective) | 7.00 to 8.00 |
| CCc1cc(-c2cc[nH]n2)c2nc(N3CCNC[C@H]3C)c(-c3nc(C)no3)c(C)c2c1 [Compound 105] | < 6.00 | ++ (between 10- and 100-fold selectivity) | 7.00 to 8.00 |
| CCc1cc(F)c2nc(N3CCN(C(=O)CN4CC[C@@H](O)C4)C[C@H]3C)c(-c3nc(C)no3)c(C)c2c1 [Compound 145] | < 6.00 | ++++ (more than 1000-fold selectivity over MOR) | 8.00 to 9.00 |
| CCc1cc(-c2ccnn2C)c2nc(N3CCC(N[C@H]4CCOC4)CC3)c(-c3ccn(C)n3)c(C)c2c1 [Compound 86] | < 6.00 | +++ (between 100- to 1000-fold selective) | > 9.00 |
| CCc1cc(F)c2nc(N3CCN([C@H]4CCOC4)C[C@H]3C)c(-c3nc(C)no3)c(C)c2c1 [Compound 33] | < 6.00 | +++ (between 100- to 1000-fold selective) | 8.00 to 9.00 |
| CCc1cc(F)c2nc(N3CCNC[C@H]3C)c(-c3ccn(C)n3)c(C)c2c1 [Compound 13, (R)-6-ethyl-8-fluoro-4-methyl-3-(1-methyl-1H-pyrazol-3-yl)-2-(2-methylpiperazin-1-yl)quinoline] | < 6.00 | ++ (between 10- and 100-fold selectivity) | ≤ 7.00 |
| CCc1cc(F)c2nc(N3CC[C@H](N[C@@H]4CCCOC4)[C@@H](C)C3)c(-c3ccn(C)n3)c(C)c2c1 [Compound 112] | < 6.00 | +++ (between 100- to 1000-fold selective) | 8.00 to 9.00 |
| CCc1cc(F)c2nc(N3CCN(C(=O)[C@@H](C)N(CC)CC)C[C@H]3C)c(-c3nc(C)no3)c(C)c2c1 [Compound 155] | < 6.00 | +++ (between 100- to 1000-fold selective) | 8.00 to 9.00 |

| Structure (SMILES) | pIC50 [1] | Selectivity (MOR/KOR) [2] | pIC50 [2] |
| --- | --- | --- | --- |
| CCc1cc(-c2ccnn2C)c2nc(N3CCC(NCC4CC(F)(F)C4)CC3)c(-c3ccn(C)n3)c(C)c2c1 [Compound 91] | 7.00 to 8.00 | ++ (between 10- and 100-fold selectivity) | 8.00 to 9.00 |
| CCc1cc(F)c2nc(N3CC[C@H]4[C@H](CCN4C[C@@H]4CCOC4)C3)c(-c3ccn(C)n3)c(C)c2c1 (stereo in doubt) [Compound 129] | < 6.00 | ++ (between 10- and 100-fold selectivity) | 7.00 to 8.00 |
| CCc1cc(F)c2nc(N3CCC(N[C@H]4CCOC[C@@H]4F)CC3)c(-c3cc(C)n(C)n3)c(C)c2c1 [Compound 3, 1-(3-(1,5-dimethyl-1H-pyrazol-3-yl)-6-ethyl-8-fluoro-4-methylquinolin-2-yl)-N-((3R,4S)-3-fluorotetrahydro-2H-pyran-4-yl)piperidin-4-amine] | 6.00 to 7.00 | +++ (between 100- to 1000-fold selective) | 8.00 to 9.00 |
| CCc1cc(F)c2nc(N3CCC(N[C@H]4CCOC[C@H]4F)CC3)c(-c3cc(C)n(C)n3)c(C)c2c1 [Compound 5, 1-(3-(1,5-dimethyl-1H-pyrazol-3-yl)-6-ethyl-8-fluoro-4-methylquinolin-2-yl)-N-((3S,4S)-3-fluorotetrahydro-2H-pyran-4-yl)piperidin-4-amine] | 6.00 to 7.00 | +++ (between 100- to 1000-fold selective) | 8.00 to 9.00 |
| CCc1cc(F)c2nc(N3CCN(C(=O)CCN(C)C)C[C@H]3C)c(-c3nc(C)no3)c(C)c2c1 [Compound 43] | < 6.00 | ++ (between 10- and 100-fold selectivity) | 7.00 to 8.00 |
| CCc1cc(F)c2nc(N3CC[C@H](N[C@@H]4CCCOC4)C[C@@H]3C)c(-c3ccn(C)n3)c(C)c2c1 [Compound 121] | < 6.00 | +++ (between 100- to 1000-fold selective) | 7.00 to 8.00 |
| CCc1cc(F)c2nc(N3CC[C@H](NC4CCOCC4)[C@H](F)C3)c(-c3ccn(C)n3)c(C)c2c1F [Compound 69] | < 6.00 | +++ (between 100- to 1000-fold selective) | 7.00 to 8.00 |
| CCc1cc(F)c2nc(N3CC[C@H](N[C@@H]4CCOC4)[C@H](C)C3)c(-c3ccn(C)n3)c(C)c2c1 [Compound 107] | < 6.00 | +++ (between 100- to 1000-fold selective) | 7.00 to 8.00 |
| CCc1cc(-c2ccnn2C)c2nc(N3CCC(N[C@@H]4CCOC4)CC3)c(-c3ccn(C)n3)c(C)c2c1 [Compound 87] | 6.00 to 7.00 | +++ (between 100- to 1000-fold selective) | > 9.00 |
| CCc1cc(F)c2nc(N3CCN(C(=O)[C@H](C)N4CC[C@@H](O)C4)C[C@H]3C)c(-c3nc(C)no3)c(C)c2c1 [Compound 150] | < 6.00 | +++ (between 100- to 1000-fold selective) | ≤ 7.00 |
| CCc1cc(F)c2nc(N3CC[C@@H]4[C@@H](CCN4C[C@@H]4CCCOC4)C3)c(-c3ccn(C)n3)c(C)c2c1 [Compound 133] | < 6.00 | +++ (between 100- to 1000-fold selective) | 7.00 to 8.00 |
| CCc1cc(F)c2nc(N3CC[C@@H]4[C@@H](CCN4[C@@H]4CCOC4)C3)c(-c3ccn(C)n3)c(C)c2c1 [Compound 123] | < 6.00 | +++ (between 100- to 1000-fold selective) | 7.00 to 8.00 |
| CCc1cc(F)c2nc(N3CC[C@@H](N[C@@H]4CCCOC4)C[C@@H]3C)c(-c3cc(C)no3)c(C)c2c1 [Compound 143] | < 6.00 | ++++ (more than 1000-fold selectivity over MOR) | 7.00 to 8.00 |
| CCc1cc(F)c2nc(N3CCC(N[C@@H]4CCOC4)CC3)c(-c3cc(C(F)(F)F)n(C)n3)c(C)c2c1 [Compound 85] | < 6.00 | +++ (between 100- to 1000-fold selective) | 7.00 to 8.00 |
| CCc1cc(F)c2nc(N3CC[C@@H](N[C@@H]4CCOC4)[C@@H](F)C3)c(-c3ccn(C)n3)c(C)c2c1 [Compound 192, (3S,4R)-1-(6-ethyl-8-fluoro-4-methyl-3-(1-methyl-1H-pyrazol-3-yl)quinolin-2-yl)-3-fluoro-N—((R)-tetrahydrofuran-3-yl)piperidin-4-amine] | < 6.00 | ++++ (more than 1000-fold selectivity over MOR) | > 9.00 |
| CCc1cc(F)c2nc(N3CC[C@@H]4[C@@H](CCN4C[C@@H]4CCCOC4)C3)c(-c3ccn(C)n3)c(C)c2c1 [Compound 128] | < 6.00 | ++ (between 10- and 100-fold selectivity) | ≤ 7.00 |
